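The compound was tested at five concentrations on cells cultured in 96-well plates, with a 48-hour exposure period. The concentration for full growth arrest is given as TGI.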
How the values were obtained:
Experiment in all cases: growth of human tumour cells (NCI), 48 h
PC-3 prostate = test system: PC-3 prostate
MDA-MB-231 breast = test system: MDA-MB-231 breast
HS 578T breast = test system: HS 578T breast
U251 CNS = test system: U251 CNS
NCI-H460 lung = test system: NCI-H460 lung
NCI/ADR-RES ovarian = test system: NCI/ADR-RES ovarian
SN12C renal = test system: SN12C renal
IGROV1 ovarian = test system: IGROV1 ovarian
786-0 renal = test system: 786-0 renal
MALME-3M melanoma = test system: MALME-3M melanoma
HCT-15 colon = test system: HCT-15 colon
MCF7 breast = test system: MCF7 breast
OVCAR-8 ovarian = test system: OVCAR-8 ovarian
SK-MEL-2 melanoma = test system: SK-MEL-2 melanoma
SF-539 CNS = test system: SF-539 CNS
UACC-257 melanoma = test system: UACC-257 melanoma
MDA-N = test system: MDA-N
NCI-H23 lung = test system: NCI-H23 lung
SW-620 colon = test system: SW-620 colon
UACC-62 melanoma = test system: UACC-62 melanoma
HCT-116 colon = test system: HCT-116 colon
HCC-2998 colon = test system: HCC-2998 colon
SR leukemia = test system: SR leukemia
TK-10 renal = test system: TK-10 renal
SF-268 CNS = test system: SF-268 CNS
COLO 205 colon = test system: COLO 205 colon
SK-MEL-5 melanoma = test system: SK-MEL-5 melanoma
RPMI-8226 leukemia = test system: RPMI-8226 leukemia
MOLT-4 leukemia = test system: MOLT-4 leukemia
NCI-H226 lung = test system: NCI-H226 lung
BT-549 breast = test system: BT-549 breast
LOX IMVI melanoma = test system: LOX IMVI melanoma
CCRF-CEM leukemia = test system: CCRF-CEM leukemia
A498 renal = test system: A498 renal
NCI-H522 lung = test system: NCI-H522 lung
SK-MEL-28 melanoma = test system: SK-MEL-28 melanoma
HOP-92 NSCLC = test system: HOP-92 NSCLC
K-562 leukemia = test system: K-562 leukemia
ACHN renal = test system: ACHN renal
HL-60(TB) leukemia = test system: HL-60(TB) leukemia
SNB-19 CNS = test system: SNB-19 CNS
OVCAR-5 ovarian = test system: OVCAR-5 ovarian
CAKI-1 renal = test system: CAKI-1 renal
OVCAR-4 ovarian = test system: OVCAR-4 ovarian
UO-31 renal = test system: UO-31 renal
SK-OV-3 ovarian = test system: SK-OV-3 ovarian
M14 melanoma = test system: M14 melanoma
EKVX NSCLC = test system: EKVX NSCLC
SNB-75 CNS = test system: SNB-75 CNS
HT29 colon = test system: HT29 colon
SF-295 CNS = test system: SF-295 CNS
T-47D breast = test system: T-47D breast
KM12 colon = test system: KM12 colon
A549 NSCLC = test system: A549 NSCLC
MDA-MB-435 = test system: MDA-MB-435
HOP-62 NSCLC = test system: HOP-62 NSCLC
OVCAR-3 ovarian = test system: OVCAR-3 ovarian
DU-145 prostate = test system: DU-145 prostate
RXF 393 renal = test system: RXF 393 renal

For `Nc1c2c(nc3ccccc13)CCCCCC2`, the TGI (PC-3 prostate) was greater than 100 µM, the TGI (MDA-MB-231 breast) was 42.5 µM and the TGI (HS 578T breast) was greater than 100 µM. For the same compound, the TGI (U251 CNS) was 80.2 µM, the TGI (NCI-H460 lung) was 38.9 µM and the TGI (NCI/ADR-RES ovarian) was greater than 100 µM. For the same compound, the TGI (SN12C renal) was greater than 100 µM, the TGI (IGROV1 ovarian) was greater than 100 µM and the TGI (786-0 renal) was 30 µM. For the same compound, the TGI (MALME-3M melanoma) was 32.6 µM, the TGI (HCT-15 colon) was greater than 100 µM and the TGI (MCF7 breast) was greater than 100 µM. For the same compound, the TGI (OVCAR-8 ovarian) was greater than 100 µM, the TGI (SK-MEL-2 melanoma) was 29.2 µM and the TGI (SF-539 CNS) was 32.3 µM. For the same compound, the TGI (UACC-257 melanoma) was 31.1 µM, the TGI (MDA-N) was 30.4 µM and the TGI (NCI-H23 lung) was greater than 100 µM. The TGI (SW-620 colon) was 50.1 µM, the TGI (UACC-62 melanoma) was 33.7 µM and the TGI (HCT-116 colon) was 64.1 µM. For the same compound, the TGI (HCC-2998 colon) was 27.4 µM, the TGI (SR leukemia) was 38 µM and the TGI (TK-10 renal) was 35.1 µM. The TGI (SF-268 CNS) was greater than 100 µM, the TGI (COLO 205 colon) was 30.6 µM and the TGI (SK-MEL-5 melanoma) was 31.3 µM. It also gave a TGI (RPMI-8226 leukemia) of 43.8 µM, a TGI (MOLT-4 leukemia) of 85 µM and a TGI (NCI-H226 lung) greater than 100 µM. For the same compound, the TGI (BT-549 breast) was greater than 100 µM, the TGI (LOX IMVI melanoma) was 31.8 µM and the TGI (CCRF-CEM leukemia) was 52.4 µM. For the same compound, the TGI (A498 renal) was 74 µM, the TGI (NCI-H522 lung) was 56.3 µM and the TGI (SK-MEL-28 melanoma) was 30 µM. It also gave a TGI (HOP-92 NSCLC) of 32.1 µM, a TGI (K-562 leukemia) of 69 µM and a TGI (ACHN renal) of 86.3 µM. For the same compound, the TGI (HL-60(TB) leukemia) was 31.6 µM.
Compound `NCCCN(CCCCN(CCCN)Cc1ccc2ccccc2c1)Cc1ccc2ccccc2c1` has a TGI (MDA-MB-231 breast) of 11.8 µM, a TGI (HS 578T breast) of 3.06 µM and a TGI (SNB-19 CNS) of 2.86 µM. For the same compound, the TGI (NCI-H460 lung) was 3.43 µM, the TGI (NCI/ADR-RES ovarian) was 54.3 µM and the TGI (SN12C renal) was 3.08 µM. For the same compound, the TGI (OVCAR-5 ovarian) was 3.44 µM, the TGI (IGROV1 ovarian) was 3.3 µM and the TGI (CAKI-1 renal) was 3.15 µM. It also gave a TGI (MALME-3M melanoma) of 3.39 µM, a TGI (OVCAR-4 ovarian) of 4.09 µM and a TGI (UO-31 renal) of 6.1 µM. It also gave a TGI (SK-OV-3 ovarian) of 3.39 µM, a TGI (HCT-15 colon) of 13.1 µM and a TGI (M14 melanoma) of 3.63 µM. For the same compound, the TGI (EKVX NSCLC) was 3.37 µM, the TGI (MDA-N) was 3.3 µM and the TGI (NCI-H23 lung) was 3.34 µM. For the same compound, the TGI (SNB-75 CNS) was 3.89 µM, the TGI (HT29 colon) was 3.11 µM and the TGI (SF-295 CNS) was 3.7 µM. It also gave a TGI (HCC-2998 colon) of 9.37 µM, a TGI (T-47D breast) of 5.03 µM and a TGI (TK-10 renal) of 5.05 µM. For the same compound, the TGI (SF-268 CNS) was 2.57 µM, the TGI (COLO 205 colon) was 5.22 µM and the TGI (RPMI-8226 leukemia) was 6.88 µM. It also gave a TGI (MOLT-4 leukemia) of 4.74 µM, a TGI (BT-549 breast) of 3.89 µM and a TGI (CCRF-CEM leukemia) greater than 100 µM. The TGI (A498 renal) was 5.06 µM, the TGI (KM12 colon) was 3.32 µM and the TGI (A549 NSCLC) was 3.2 µM. For the same compound, the TGI (HOP-92 NSCLC) was 5.75 µM, the TGI (K-562 leukemia) was greater than 100 µM and the TGI (ACHN renal) was 3.3 µM. It also gave a TGI (HL-60(TB) leukemia) greater than 100 µM and a TGI (MDA-MB-435) of 4.27 µM.
With `COc1ccccc1NC(=O)/C(Cc1nc2ccc([N+](=O)[O-])cc2[nH]c1=O)=N\NC(=O)C[N+](C)(C)C` the TGI (PC-3 prostate) was greater than 100 µM, the TGI (MDA-MB-231 breast) was greater than 100 µM and the TGI (HS 578T breast) was greater than 100 µM. It also gave a TGI (U251 CNS) greater than 100 µM, a TGI (SNB-19 CNS) greater than 100 µM and a TGI (HOP-62 NSCLC) greater than 100 µM. For the same compound, the TGI (NCI-H460 lung) was greater than 100 µM, the TGI (OVCAR-3 ovarian) was greater than 100 µM and the TGI (NCI/ADR-RES ovarian) was greater than 100 µM. For the same compound, the TGI (SN12C renal) was greater than 100 µM, the TGI (OVCAR-5 ovarian) was greater than 100 µM and the TGI (IGROV1 ovarian) was greater than 100 µM. For the same compound, the TGI (786-0 renal) was greater than 100 µM, the TGI (CAKI-1 renal) was greater than 100 µM and the TGI (OVCAR-4 ovarian) was greater than 100 µM. For the same compound, the TGI (UO-31 renal) was greater than 100 µM, the TGI (SK-OV-3 ovarian) was greater than 100 µM and the TGI (HCT-15 colon) was greater than 100 µM. For the same compound, the TGI (MCF7 breast) was greater than 100 µM, the TGI (OVCAR-8 ovarian) was greater than 100 µM and the TGI (SK-MEL-2 melanoma) was greater than 100 µM. The TGI (SF-539 CNS) was greater than 100 µM, the TGI (M14 melanoma) was greater than 100 µM and the TGI (UACC-257 melanoma) was greater than 100 µM. For the same compound, the TGI (EKVX NSCLC) was greater than 100 µM, the TGI (MDA-N) was 36 µM and the TGI (NCI-H23 lung) was greater than 100 µM. It also gave a TGI (SW-620 colon) greater than 100 µM, a TGI (UACC-62 melanoma) greater than 100 µM and a TGI (SNB-75 CNS) greater than 100 µM. It also gave a TGI (HT29 colon) greater than 100 µM, a TGI (SF-295 CNS) greater than 100 µM and a TGI (HCT-116 colon) greater than 100 µM. It also gave a TGI (HCC-2998 colon) greater than 100 µM, a TGI (SR leukemia) of 6.47 µM and a TGI (TK-10 renal) greater than 100 µM. The TGI (SF-268 CNS) was greater than 100 µM, the TGI (DU-145 prostate) was greater than 100 µM and the TGI (COLO 205 colon) was greater than 100 µM. For the same compound, the TGI (SK-MEL-5 melanoma) was greater than 100 µM, the TGI (MOLT-4 leukemia) was greater than 100 µM and the TGI (NCI-H226 lung) was greater than 100 µM. It also gave a TGI (BT-549 breast) greater than 100 µM, a TGI (RXF 393 renal) greater than 100 µM and a TGI (LOX IMVI melanoma) greater than 100 µM. For the same compound, the TGI (CCRF-CEM leukemia) was 94.5 µM, the TGI (NCI-H522 lung) was greater than 100 µM and the TGI (KM12 colon) was greater than 100 µM. It also gave a TGI (SK-MEL-28 melanoma) greater than 100 µM, a TGI (A549 NSCLC) greater than 100 µM and a TGI (HOP-92 NSCLC) greater than 100 µM. For the same compound, the TGI (ACHN renal) was greater than 100 µM, the TGI (HL-60(TB) leukemia) was 93.1 µM and the TGI (MDA-MB-435) was greater than 100 µM.

From PubChem BioAssay (NCI)
